The Deep4Chem optical property database

Test: solvent given as SMILES

## CCC1(CC)c2cc(-c3ccc(-c4ccc5c(c4)C(CC)(CC)c4cc(C(C)(C)C)ccc4-5)cc3)ccc2-c2ccc(C(C)(C)C)cc21
In CCCCC
  fluorescence lifetime: 0.74 ns
In CCCCCC
  fluorescence lifetime: 0.69 ns
In CCCCCCC
  fluorescence lifetime: 0.7 ns
In CCCCCCCC
  fluorescence lifetime: 0.7 ns
In CCCCCCCCC
  fluorescence lifetime: 0.72 ns
In CCCCCCCCCC
  fluorescence lifetime: 0.79 ns
In CCCCCCCCCCCC
  fluorescence lifetime: 0.78 ns
In CCCCCCCCCCCCC
  fluorescence lifetime: 0.82 ns
In CCCCCCCCCCCCCCC
  fluorescence lifetime: 0.81 ns
In CCCCCCCCCCCCCCCC
  fluorescence lifetime: 0.82 ns
In CCCCCCCCCCO
  fluorescence lifetime: 0.79 ns
In CCCCCCCCCO
  fluorescence lifetime: 0.87 ns
In CCCCCCCCO
  fluorescence lifetime: 0.84 ns
In CCCCCCCO
  fluorescence lifetime: 0.8 ns
In CCCCCCO
  fluorescence lifetime: 0.81 ns
In CCCCCO
  fluorescence lifetime: 0.77 ns
In CCCCO
  fluorescence lifetime: 0.79 ns
In CCCO
  fluorescence lifetime: 0.72 ns
In CCO
  fluorescence lifetime: 0.82 ns
In CO
  fluorescence lifetime: 0.8 ns

## Nc1ccc2c(c1)C(=O)N(C13C[C@H]4C[C@@H](C1)C[C@@H](C3)C4)C2=O
In C1CCCCC1
  fluorescence lifetime: 10.7 ns
In C1CCOC1
  fluorescence lifetime: 18.2 ns
In CC#N
  fluorescence lifetime: 19 ns
In CCOC(C)=O
  fluorescence lifetime: 17 ns
In CO
  fluorescence lifetime: 9.49 ns
In CS(C)=O
  fluorescence lifetime: 22.4 ns
In Cc1ccccc1
  fluorescence lifetime: 17.3 ns
In ClCCl
  fluorescence lifetime: 24.6 ns

## C[Si](C)(C)c1ccc(-c2ccc(-c3ccc(-c4ccc(-c5ccc([Si](C)(C)C)cc5)s4)c4nsnc34)s2)cc1
In C1CCOC1
  fluorescence lifetime: 6.9 ns

## O=C1c2ccccc2C(=O)c2cc(-c3ccc(N(c4ccccc4)c4ccccc4)cc3)ccc21
In CCCCCC
  fluorescence lifetime: 5.51 ns
In CCOC(C)=O
  fluorescence lifetime: 0.15 ns
In CCOCC
  fluorescence lifetime: 2.81 ns
In Cc1ccccc1
  fluorescence lifetime: 6.79 ns
In ClC(Cl)(Cl)Cl
  fluorescence lifetime: 8.82 ns

## CC(=O)O[B-]1(OC(C)=O)OC(/C=C/c2ccc(C)cc2)=CC(/C=C/c2ccc(C)cc2)=[O+]1
In C1CCOC1
  fluorescence lifetime: 1.32 ns
In CC#N
  fluorescence lifetime: 1.23 ns
In CC(C)=O
  fluorescence lifetime: 1.19 ns
In CS(C)=O
  fluorescence lifetime: 1.27 ns
In Cc1ccccc1
  fluorescence lifetime: 1.34 ns
In ClC(Cl)Cl
  fluorescence lifetime: 1.25 ns
In ClCCl
  fluorescence lifetime: 1.26 ns

## c1ccc(-c2nc(-c3ccccc3)nc(-c3ccc(-n4c5ccccc5c5cc6c(cc54)C(c4ccccc4)(c4ccccc4)c4ccccc4-6)cc3)n2)cc1
In O=P(c1ccccc1)(c1ccccc1)c1ccccc1Oc1ccccc1P(=O)(c1ccccc1)c1ccccc1
  fluorescence lifetime: 10.3 ns

## Cc1c[nH]c(=O)[nH]c1=O
In CC#N
  fluorescence lifetime: 0.0002 ns

## [NH-]c1cc(N)cc(-c2nc3ccccc3s2)c1
In O
  fluorescence lifetime: 3.98 ns

## CC(C)(C)c1ccc(C2=C(c3ccc(C(C)(C)C)cc3)[Si](c3ccccc3)(c3ccccc3)c3ccccc32)cc1
In C1CCOC1
  fluorescence lifetime: 1.62 ns

## COc1ccc(N(c2ccc(OC)cc2)c2ccc(-c3ccc(-c4ccc(-c5ccc(-c6ccc(N(c7ccc(OC)cc7)c7ccc(OC)cc7)cc6)s5)c5nsnc45)s3)cc2)cc1
In ClC(Cl)Cl
  fluorescence lifetime: 4.9 ns

## CN(C)CCCN1c2ccccc2CCc2ccc(Cl)cc21
In CC#N
  fluorescence lifetime: 0.22 ns
In CO
  fluorescence lifetime: 0.19 ns
In O
  fluorescence lifetime: 0.18 ns

## CCOC(=O)CCCCCn1c2ccccc2c(=O)c2cc(I)ccc21
In CO
  fluorescence lifetime: 1.7 ns

## CCOC(=O)c1ccccc1-c1c2ccc(=[N+](CC)CC)cc-2oc2c1c(=O)oc1c3c4c(cc12)CCCN4CCC3
In CCO
  fluorescence lifetime: 0.43 ns
In ClC(Cl)Cl
  fluorescence lifetime: 3.44 ns
In O
  fluorescence lifetime: 0.13 ns

## N#Cc1c(-n2c3ccccc3c3ccccc32)c(-n2c3ccccc3c3ccccc32)c(-n2c3ccccc3c3ccccc32)c(-n2c3ccccc3c3ccccc32)c1-n1c2ccccc2c2ccccc21
In Cc1ccccc1
  fluorescence lifetime: 3.8 ns
In c1cc(-c2cccc(-n3c4ccccc4c4ccccc43)c2)cc(-n2c3ccccc3c3ccccc32)c1
  fluorescence lifetime: 3.2 ns

## N#Cc1c2ccccc2cc2ccccc12
In C1CCCCC1
  fluorescence lifetime: 12.7 ns
In CO
  fluorescence lifetime: 16 ns

## CC1(C)C(/C=C/C2=C(c3ccc(C(=O)O)cc3)C(=C/C=C3/N(CCCCS(=O)(=O)[O-])c4ccc(S(=O)(=O)[O-])cc4C3(C)C)/CCC2)=[N+](CCCCS(=O)(=O)[O-])c2ccc(S(=O)(=O)[O-])cc21
In CC(C)=O
  fluorescence lifetime: 1.02 ns
In CCO
  fluorescence lifetime: 1 ns
In CO
  fluorescence lifetime: 0.81 ns
In CS(C)=O
  fluorescence lifetime: 1.33 ns
In O
  fluorescence lifetime: 0.44 ns

## N#Cc1cc(-n2c3ccccc3c3ncccc32)c(-n2c3ccccc3c3ncccc32)cc1C#N
In c1cc(-n2c3ccccc3c3ccccc32)cc(-n2c3ccccc3c3ccccc32)c1
  fluorescence lifetime: 70 ns

## Cc1ccc(N(c2ccc(C)cc2)c2ccc3c4cccc5c(N(c6ccc(C)cc6)c6ccc(C)cc6)ccc(c6cccc2c63)c54)cc1
In ClCCl
  fluorescence lifetime: 6.25 ns

## CCCCCCCCCCCCn1cccc1/C=C/c1cc(OCCCC)c(/C=C/c2cccn2CCCCCCCCCCCC)cc1OCCCC
In Cc1ccccc1
  fluorescence lifetime: 1.26 ns

## Nc1ccc(/C=C/c2cccnc2)cc1
In CC#N
  fluorescence lifetime: 0.18 ns
In CCCCCC
  fluorescence lifetime: 0.22 ns

## COc1ccc(-c2csc(/C(C#N)=C/c3ccccc3Cl)n2)cc1
In CC#N
  fluorescence lifetime: 3.93 ns

## c1ccc2c(c1)[nH]c1ncccc12
In CC#N
  fluorescence lifetime: 13.3 ns
In CCCCCC
  fluorescence lifetime: 9.1 ns

## CC1(C)c2ccccc2N(c2ccc(-c3ccc4c(c3)C(=O)c3ccc(-c5ccc(N6c7ccccc7C(C)(C)c7ccccc76)cc5)cc3C4=O)cc2)c2ccccc21
In Cc1ccccc1
  fluorescence lifetime: 4.2 ns
In c1ccc2c(c1)c1ccccc1n2-c1ccc(-c2ccc(-n3c4ccccc4c4ccccc43)cc2)cc1
  fluorescence lifetime: 41 ns

## CCC(CC)COC1=CC2=C3c4cc(OCC(CC)CC)c(-c5ccccc5)n4[B-](F)(F)[n+]4c3n(c3cc(C(C)(C)C)ccc34)[B-](F)(F)[N+]2=C1c1ccccc1
In C1CCOC1
  fluorescence lifetime: 0.97 ns
In ClCCl
  fluorescence lifetime: 1.01 ns
